According to US20200352886A1 (priority 2009, published 2020):

What was measured:
Gottingen Minipigs = details: minipig, in vivo
Description: The broad aim of the study was to evaluate the potential dermal toxicity of DMSO when administered topically to four groups of Gottingen Minipigs® for 52 weeks at concentrations of 0, 9%, 45.5% and 90% (w/w) and to evaluate reversibility, progression, or delayed appearance of any observed changes following a 1-month postdose observation period. Two additional groups of Gottingen Minipigs® were dosed topically for 39 weeks at 0% and 90% followed by a 4-month recovery post dose observation period.
Four groups consisting of six animals/sex/group received DMSO at respective dose levels of 0, 9, 45.5, or 90% (w/w) by dermal application three times a day for 364 consecutive days. Following 52 weeks of administration, two animals/sex at 0, 9, 45.5, and 90% dose levels were maintained for a 4-week recovery period. Two additional groups consisting of six animals/sex/group received the control or 90% (w/w) DMSO by dermal application three times a day for 273 consecutive days. Following 39 weeks of administration, two animals/sex at 0 and 90% dose levels were maintained for a 4 month recovery period. […]
Clinical observations were conducted weekly. At the end of the each treatment and recovery period, necropsy examinations were performed, organ weights were recorded, and selected tissues were microscopically examined. […]

Sprague-Dawley rats = details: rat, in vivo
[1] = tested on: subjects with primary osteoarthritis of the knee; test: 12-week randomized controlled trial: safety (adverse events, laboratory parameters, ocular examination); type: in vivo, human
Description: Study Design: Eligible subjects were stratified by the investigator at baseline into stratum 1 (no pain and normal radiological examination in the non-study knee) or stratum 2 (pain and/or abnormal radiological examination in the non-study knee), and then randomized into the trial by receiving the next numbered study kit at that clinic for that stratum. […] Subjects applied 40 drops of solution (approximately 1.2 mL) around the entire circumference of the study knee, without massage, 4 times daily, and took one study tablet daily for up to 12 weeks.
Each subject completed a full efficacy assessment questionnaire after randomization at baseline and at 4, 8 and 12 weeks, or at drop out. […] The POHA asked the question, “Considering all the ways your osteoarthritic (study) knee and its treatment affect you, including both positive and negative effects, how would you rate your overall state of health in the past 48 hours?” Secondary efficacy variables were WOMAC stiffness and patient global assessment (“PGA”) of knee osteoarthritis. The PGA asked the question, “How has the osteoarthritis in your study joint been over the last 48 hours?” The POHA and PGA were scored on a 5-point Likert scale. There was no assessment of the non-treated knee. […] Adverse events were categorized according to Coding Symbols for Thesaurus of Adverse Reaction Terms (“COSTART”). Blood and urine samples were obtained for routine laboratory analysis at baseline, 4 and 12 weeks. Ocular examination (visual acuity test, slit lamp examination and lens assessment) was conducted at the baseline and final visit.
For a missing final score, last observation was carried forward (“LOCF”). Safety analyses were performed on all subjects who received even one dose of either study medication. There was no imputation of missing safety data.

[2] = cited from earlier work
[3] = tested on: symptomatic primary osteoarthritis of the knee; test: 12-week double-blind, double-dummy randomized controlled trial: efficacy (WOMAC, POHA, PGA); type: in vivo, human; details: 12 weeks
Description: This randomized, double-blind, double-dummy, placebo-, vehicle- and active-controlled study was conducted at 40 outpatient centers in Canada and 21 centers in the United States following approval by the appropriate institutional review boards. Eligible subjects, after written informed consent, included men and non-pregnant women aged 40-85 with primary OA of the knee based on (i) standard radiological criteria for OA (Altman, R D, et al., Atlas of individual radiographic features in osteoarthritis. […] J Rheumatol. 1988 December; 15(12):1833-40). All knee films were reviewed by a single radiologist and each compartment was scored (none=1, mild=2, moderate=3, severe=4). Only one knee was treated; where both knees met all entry criteria, the more painful knee (or dominant knee if they scored the same) was selected. Standard exclusion criteria were employed, as described in Roth S H, Shainhouse J Z. Efficacy and safety of a topical diclofenac solution ([…]®) in the treatment of primary osteoarthritis of the knee: a randomized, double-blind, vehicle-controlled clinical trial. Arch Intern Med. 2004; 164:2017-23. Study Design: […] Each study kit contained topical solution and oral tablets for one of the five treatment regimens: […] Topical Diclofenac Solution plus oral diclofenac tablets. […] Concomitant analgesic and anti-inflammatory medications, including over the counter NSAIDs and other analgesics, were prohibited. Continuation of stable treatment with glucosamine, chondroitin, anti-depressants or a proton pump inhibitor (previous 90 days), or low-dose (<325 mg/day) acetylsalicylic acid (previous 30 days) was permitted. Acetaminophen was provided, and permitted (up to four 325-mg caplets per day) except during the 3 days before each efficacy assessment. Other topical products on the knee, including skin emollients, were prohibited. A patient with a gastrointestinal adverse event was allowed to start a proton pump inhibitor. Compliance with the treatment regimen was assessed by weighing the solution bottles and counting study tablets at each clinic visit. […] of randomized placebo controlled clinical trials. J Rheumatol. 2006; 33:1841-4), and patient overall health assessment (“POHA”). The POHA asked the question, “Considering all the ways your osteoarthritic (study) knee and its treatment affect you, including both positive and negative effects, how would you rate your overall state of health in the past 48 hours?” Secondary efficacy variables were WOMAC stiffness and patient global assessment (“PGA”) of knee osteoarthritis. The PGA asked the question, “How has the osteoarthritis in your study joint been over the last 48 hours?” The POHA and PGA were scored on a 5-point Likert scale. There was no assessment of the non-treated knee. […] Adverse events were categorized according to Coding Symbols for Thesaurus of Adverse Reaction Terms (“[…]”). Blood and urine samples were obtained for routine laboratory analysis at baseline, 4 and 12 weeks. Ocular examination (visual acuity test, slit lamp examination and lens assessment) was conducted at the baseline and final visit. All planned analyses were specified a priori. […] Statistical tests were two-sided at the 5% level of significance. All efficacy analyses were by analysis of covariance of the change in score from baseline to landmark final assessment, with baseline score as the covariate. Subjects in both randomization strata were combined for all analyses. Secondary comparisons included topical diclofenac vs. placebo for the secondary variables, and topical diclofenac vs. DMSO vehicle and DMSO vehicle vs. placebo for all variables. A post hoc efficacy analysis compared topical diclofenac vs. oral diclofenac and topical diclofenac+oral diclofenac vs. oral diclofenac. For a missing final score, last observation was carried forward (“LOCF”). Safety analyses were performed on all subjects who received even one dose of either study medication. There was no imputation of missing safety data. […]

[4] = clinical trials, combination compared to oral diclofenac alone
[5] = normal at baseline to above upper limit of normal
[6] = 50 mg of oral diclofenac TID, label of Voltaren Gel
[7] = mean (SD), maximum score 4, mITT

SMILES: C[S+](C)[O-] [DMSO, Dimethyl sulfoxide]
- ophthalmoscopic abnormalities (Gottingen Minipigs): no test article-related ophthalmoscopic abnormalities of any kind
- risk for development of lens opacities or refractive index changes (Gottingen Minipigs): no increased risk for development of lens opacities or refractive index changes
- ophthalmoscopic abnormalities (Sprague-Dawley rats): No test article-related ophthalmoscopic abnormalities

SMILES: O=C(O)Cc1ccccc1Nc1c(Cl)cccc1Cl [ODiclo, diclofenac]
- Abdominal pain ([1]; 12 weeks): 11 (7.3) number (%) of subjects
- Abnormal taste sensation or odor ([1]; 12 weeks): 0 (0.0) number (%) of subjects
- Any adverse event ([1]; 12 weeks): 94 (62.3) number (%) of subjects
- Any digestive system event ([1]; 12 weeks): 36 (23.8) number (%) of subjects
- Any skin/appendages event ([1]; 12 weeks): 11 (7.3) number (%) of subjects
- Contact dermatitis (application site) ([1]; 12 weeks): 1 (0.7) number (%) of subjects
- Contact dermatitis with vesicles (application site) ([1]; 12 weeks): 1 (0.7) number (%) of subjects
- Diarrhea ([1]; 12 weeks): 7 (4.6) number (%) of subjects
- Dry skin (application site) ([1]; 12 weeks): 4 (2.6) number (%) of subjects
- Dyspepsia ([1]; 12 weeks): 6 (4.0) number (%) of subjects
- Nausea ([1]; 12 weeks): 3 (2.0) number (%) of subjects
- Pruritis (application site) ([1]; 12 weeks): 0 (0.0) number (%) of subjects
- Rash ([1]; 12 weeks): 0 (0.0) number (%) of subjects
- Rectal hemorrhage ([1]; 12 weeks): 0 (0.0) number (%) of subjects
- incidence of hypertension ([1]; 12 weeks): 1.3%
- increase in any liver enzyme to three times the upper limit of normal ([1]; 12 weeks): 2 subjects
- Abnormal vision ([1]; 12 weeks, other system event): 4 (2.6) number (%) of subjects
- Accidental injury ([1]; 12 weeks, other system event): 4 (2.6) number (%) of subjects
- Arthralgia ([1]; 12 weeks, other system event): 12 (7.9) number (%) of subjects
- Back pain ([1]; 12 weeks, other system event): 11 (7.3) number (%) of subjects
- Conjunctivitis ([1]; 12 weeks, other system event): 3 (2.0) number (%) of subjects
- Headache ([1]; 12 weeks, other system event): 26 (17.2) number (%) of subjects
- Pain ([1]; 12 weeks, other system event): 8 (5.3) number (%) of subjects
- Respiratory disorder ([1]; 12 weeks, other system event): 8 (5.3) number (%) of subjects
- ALT, mean change ([1]; baseline to final, mean (SD)): 7.2 (25.3) U/L
- AST, mean change ([1]; baseline to final, mean (SD)): 2.5 (10.9) U/L
- Creatinine, mean change ([1]; baseline to final, mean (SD)): 3.1 (11.0) μmol/L
- Hemoglobin, mean change ([1]; baseline to final, mean (SD)): −3.8 (7.1) g/L
- abnormal creatinine [1, 4]: 7%
- abnormal hemoglobin [1, 4]: 9%
- abnormal urea [1, 4]: 12%
- rate of rectal hemorrhage ([1]; clinical trials, combination of topical and oral diclofenac compared to oral diclofenac alone): less than 1%
- ALT, normal to abnormal [1, 5]: 26 (18.8) N (%)
- Creatinine, normal to abnormal [1, 5]: 10 (7.2) N (%)
- Hemoglobin, normal to abnormal ([1]; normal at baseline to below lower limit of normal): 8 (5.8) N (%)
- serious adverse events ([1]; number of events per arm, 12 weeks): 1
- mean AUC0-24 [2, 6]: 3890 ng·h/mL
- mean Cmax [2, 6]: 2270 ng/mL
- predicted level of diclofenac reported with oral diclofenac ([2]; oral): 1500 ng/mL
- PGA (patient global assessment of the study knee), change in score [3, 7]: −1.42 (1.29)
- POHA (patient overall health assessment), change in score [3, 7]: −0.88 (1.31)
- WOMAC Stiffness, change in score ([3]; mean (SD), maximum score 8, mITT): −2.07 (2.02)
- WOMAC Pain, change in score (final score minus baseline score) ([3]; mean (SD), maximum score 20, mITT): −6.4 (4.1)
- WOMAC Physical Function, change in score ([3]; mean (SD), maximum score 68, mITT): −17.5 (14.3)
- improvement in variable score ([3]; oral diclofenac group): 40-48%
